Reference: patent US20170057958A1, “ENANTIOMERS OF THE N-(2-AMINO-5-FLUORO-2-METHYLPENTYL)-8-[(2,6-DIFLUOROBENZYL)OXY]-2-METHYLIMIDAZO[1,2-A]PYRIDINE-3-CARBOXAMIDE, AS WELL AS OF THE DI- AND TRIFLUORO DERIVATIVES FOR THE TREATMENT OF CARDIOVASCULAR DISEASES” (BAYER PHARMA AKTIENGESELLSCHAFT, priority 2014, published 2017)

Tested on: recombinant guanylate cyclase reporter cell line
Assay: Effect on a recombinant guanylate cyclase reporter cell line
Assay type: cell-based
Details: in some cases mean values for individual determinations
Description: B-2. Effect on a Recombinant Guanylate Cyclase Reporter Cell Line
The cellular activity of the compounds according to the invention is determined using a recombinant guanylate cyclase reporter cell line, as described in F. Wunder et al., Anal. Biochem. 339, 104-112 (2005).
Representative MEC values (MEC=minimum effective concentration) for the compounds of the invention are shown in the table below (in some cases as mean values for individual determinations): […]

Structure (SMILES)	MEC (minimum effective concentration) [µM]
Cc1nc2c(OCc3c(F)cccc3F)cccn2c1C(=O)NCC(C)(N)CCCF (single isomer, unassigned; enantiomer a) [Example 1, ent-N-(2-amino-5-fluoro-2-methylpentyl)-8-[(2,6-difluorobenzyl)oxy]-2-methylimidazo[1,2-a]pyridine-3-carboxamide (enantiomer A)]	0.3
Cc1nc2c(OCc3c(F)cccc3F)cccn2c1C(=O)NCC(C)(N)CC(F)F (single isomer, unassigned; enantiomer a) [Example 3, ent-N-(2-amino-4,4-difluoro-2-methylbutyl)-8-[(2,6-difluorobenzyl)oxy]-2-methylimidazo[1,2-a]pyridine-3-carboxamide (enantiomer A)]	0.3
Cc1nc2c(OCc3c(F)cccc3F)cccn2c1C(=O)NCC(C)(N)CCC(F)(F)F (single isomer, unassigned; enantiomer a) [Example 5, ent-N-(2-amino-5,5,5-trifluoro-2-methylpentyl)-8-[(2,6-difluorobenzyl)oxy]-2-methylimidazo[1,2-a]pyridine-3-carboxamide (enantiomer A)]	0.1
Cc1nc2c(OCc3c(F)cccc3F)cccn2c1C(=O)NCC(C)(N)CCCF (single isomer, unassigned; enantiomer b) [Example 2, ent-N-(2-amino-5-fluoro-2-methylpentyl)-8-[(2,6-difluorobenzyl)oxy]-2-methylimidazo[1,2-a]pyridine-3-carboxamide (enantiomer B)]	0.3
Cc1nc2c(OCc3c(F)cccc3F)cccn2c1C(=O)NCC(C)(N)CC(F)F (single isomer, unassigned; enantiomer b) [Example 4, ent-N-(2-amino-4,4-difluoro-2-methylbutyl)-8-[(2,6-difluorobenzyl)oxy]-2-methylimidazo[1,2-a]pyridine-3-carboxamide (enantiomer B)]	0.3
Cc1nc2c(OCc3c(F)cccc3F)cccn2c1C(=O)NCC(C)(N)CCC(F)(F)F (single isomer, unassigned; enantiomer b) [Example 6, ent-N-(2-amino-5,5,5-trifluoro-2-methylpentyl)-8-[(2,6-difluorobenzyl)oxy]-2-methylimidazo[1,2-a]pyridine-3-carboxamide (enantiomer B)]	0.03
Cc1nc2c(OCc3c(F)ccc(F)c3F)cccn2c1C(=O)NCC(C)(N)CCC(F)(F)F (single isomer, unassigned; enantiomer b) [Example 7, ent-N-(2-amino-5,5,5-trifluoro-2-methylpentyl)-2-methyl-8-[(2,3,6-trifluorobenzyl)oxy]imidazo[1,2-a]pyridine-3-carboxamide (enantiomer B)]	0.09
